Test results published in patent publication US5919799A, “Imidazothiazole compound” (Nikken Chemicals Co., Ltd., priority 1995, dated 1999).
Where a name gives a salt, the structure may show the parent alone.

Experiments:
[1] = tested on: VJ-300 cells (multidrug resistant clones of KB cells); experiment: In vitro suppression of proliferation of VJ-300 cells by co-administration with vincristine; type: cell-based, Human; conditions: co-administered VCR and test compound (1 μg/ml), relative to VCR alone in KB = 1
Experimental: (§1) As the incubation solution, an Eagle MEM medium (made by Nissui Seiyakusha) containing 10% fetal calf serum (made by Flow Laboratories Co.) and 0.292 mg/ml L-glutamine (made by Flow Laboratories Co.) was used. The action overcoming resistance to an anti-neoplastic agent and effect in enforcing the effect of an anti-neoplastic agent obtained through co-administration of the anti-neoplastic agent doxorubicin (adriamycin, ADM) and the test compounds were tested as follows:
The test cells were suspended in the incubation medium and adjusted to a cell density of about 200 cells/ml. 2 ml portions of the cell suspension were placed in petri dishes and incubated in a carbon dioxide gas incubator (5% CO2, 95% air) at 37° C. for 24 hours. Next, predetermined concentrations of aqueous ADM solutions and dimethyl sulfoxide (DMSO) solutions of predetermined concentrations of the test compounds were added into 5 to 10 μl portions, then incubation was continued for 7 days. After the end of the incubation, the samples were fixed by methanol, Giemsa staining was performed, the number of colonies in each dish was counted, and a volume reaction curve was prepared. This was used to calculate the ADM concentration at a 50% cell survival rate (LD50) and judge the action overcoming resistance to an anti-neoplastic agent and effect in enhancing the effect of an anti-neoplastic agent.
The LD50 concentration of ADM in the ADM control group for KB cells was shown as the resistance degree "1" and the other LD50 concentrations were indexed against this to calculate the resistance degrees. In Table 2, ADM alone (control) is the group administered ADM alone, ADM+Compound 1 is the group co-administered ADM and Compound 1 (1 μg /ml) and so on down to ADM+Compound 19 which is the group co-administered ADM and Compound 19 (1 μg /ml).
A volume reaction curve was prepared and the resistance calculated. In the Tables, VCR alone (control) is the group administered VCR alone, VCR+Compound 1 is the group co-administered VCR and Compound 1(1 μg /ml) and so on down to VCR+Compound 16 which is the group co-administered VCR and Compound 16 (1 μg/ml).

[2] = tested on: VCR resistant murine leukemia (P388/VCR) cells; experiment: In vivo effect of overcoming resistance with etoposide (VP-16) in P388/VCR bearing mice (intravenous); parameters: species or system CDF1 male mice; conditions: VP-16 (3 mg/kg) + compound (40 mg/kg), i.v., five days; for Effect overcoming resistance (T/V %): vs VP-16 alone; for Rate of prolongation of life (T/C %): vs non-administered control
Experimental: (b) Separately, groups of six CDF1 male mice were intravenously given transplants of 1.2×10^5 VCR resistant murine leukemia (P388/VCR) cells. The compound of the present invention (20 or 40 mg/kg) was dissolved in 0.01N hydrochloric acid. Etoposide (VP-16, 3 mg/kg) was dissolved in a physiological saline solution. These were administered intravenously for five days and the days of survival were found. In the same way as (a), the rate of prolongation of life with respect to the control (T/C) and the effect in overcoming the resistance to an anti-neoplastic agent (T/V) were found. In Table 6, the control is the non-administered group, VP-16 alone is the group administered VP-16 (3 mg/kg) and VP-16+Compound 5 is the group co-administered VP-16 (3 mg/kg) and Compound 5 (40 mg/kg) and so on to VP-16+Compound 16 which is the group co-administered VP-16 (3 mg/kg) and Compound 16 (40 mg/kg).

[3] = Acute toxicity test (b), intraperitoneal, five mice per group; conditions: mouse, in vivo, ip, groups of five, 1000 mg to 250 mg/kg
Experimental: (§2) (a) Animals used: ICR male mice (Charles River Japan), 7 to 8 weeks old, were used three to a group.
(§3) Test method: The compound of the present invention was suspended in 0.5% sodium carboxymethyl cellulose(CMC-Na) containing 0.1% Tween 80. […] The survival of the animals was examined up to 7 days after administration, then the Van Der Wearder area method was used to calculate the LD50 value.
(b) Groups of five mice were tested in the same way as in (a) except that the drug was administered intraperitoneally from 1000 mg by a rate of 1/√2 until 250 mg/kg.

[4] = tested on: VJ-300 cells (multidrug resistant clones of KB cells); experiment: In vitro suppression of proliferation (colony formation) of VJ-300 cells by co-administration with doxorubicin; type: cell-based, Human; conditions: ADM alone (Control); relative to KB = 1
Experimental: In Vitro Test of Effect of Suppression of Proliferation of Cancer Cells by Co-Administration with Doxorubicin
as §1, with “Human epipharynx cancer derived cancer KB cells (sensitive cells) and their multidrug resistant clones VJ-300 cells (resistant cells) were used as test cells. As” for “As”
The test cells were suspended in the incubation medium and adjusted to a cell density of about 200 cells/ml. 2 ml portions of the cell suspension were placed in petri dishes and incubated in a carbon dioxide gas incubator (5% CO2, 95% air) at 37° C. for 24 hours. […] After the end of the incubation, the samples were fixed by methanol, Giemsa staining was performed, the number of colonies in each dish was counted, and a volume reaction curve was prepared. […]

[5] = tested on: VCR resistant murine leukemic (P388/VCR) cells; experiment: In vivo effect of overcoming resistance to vincristine in VCR resistant murine leukemia cell bearing mice (intraperitoneal); parameters: species or system CDF1 male mice; conditions: VCR (100 μg/kg) + compound (100 mg/kg), i.p., 5 days; for Effect overcoming resistance (T/V %): vs VCR alone; for Rate of prolongation of life (T/C %): vs non-administered control
Experimental: (a) 10^6 VCR resistant murine leukemic (P388/VCR) cells were transplanted intraperitoneally to groups of six CDF1 male mice. The compound of the present invention (10 or 100 mg/kg) was suspended in 0.5% sodium carboxymethyl cellulose containing 0.1% Tween 80, while the VCR (100 μg/kg) was dissolved in physiological saline. These were each administered intraperitoneally over 5 days and the mice observed to find the days of survival and the rate of prolongation of life with respect to the control (T/C). The effect in overcoming resistance to an anti-neoplastic agent (T/V) was found from the following formula:
Effect in overcoming resistance to anti-neoplastic agent (T/V%)=(Rate of prolongation of life when co-administering VCR and compound of present invention (T/C%))/(Rate of prolongation of life by VCR alone
In Table 5, "Control" is the non-administered group, VCR alone is the group administered just VCR (100 μg /kg), VCR+Compound 1 is the group co-administered VCR (100 μg /kg) and Compound 1 (100 mg/kg) and so on to VCR+Compound 14* which is the group co-administered VCR (100 μg /kg) and Compound 14 (10 mg/kg).

[6] = Acute toxicity test (a), intraperitoneal, three animals per group; conditions: mouse, in vivo, ip, ICR male mice, up to 7 days after administration
From the text: as §2, §3

## CN1CCCC(C(=O)NN=Cc2c(-c3ccccc3)nc3sc4ccccc4n23)C1 (stereo not drawn) [Compound 15, 2-phenyl-3-[N-methyl-3-piperidylcarbonylaminoiminomethyl]imidazo[2,1-b]benzothiazole hydrochloride]
[1]; Table 4
  Resistance with VCR, VJ-300 (resistance degree): 3.1
[2]
  Days of survival: 13.0 days
  Effect overcoming resistance (T/V %): 116%
  Rate of prolongation of life (T/C %): 126%
[3]
  LD50 at 168 h: ≥ 1000 mg/kg

## COc1cccc2c1C(=O)c1c(O)c3c(c(O)c1C2=O)C[C@@](O)(C(=O)CO)C[C@@H]3O[C@H]1C[C@H](N)[C@H](O)[C@H](C)O1 [ADM, doxorubicin]
[4]
  Resistance at ADM, VJ-300 (resistance degree): 46.7

## O=C(NN=Cc1c(-c2ccccc2)nc2sc3c(n12)CCCC3)c1cccnc1 [Compound 1, 5,6,7,8-tetrahydro-2-phenyl-3-(3-pyridylcarbonylaminoiminomethyl)imidazo[2,1-b]benzothiazole]
[1]; Table 3
  Resistance with VCR, VJ-300 (resistance degree): 3.3
[5]
  Days of survival: 12.33 days
  Effect overcoming resistance (T/V %): 111%
  Rate of prolongation of life (T/C %): 118%
[6]
  LD50 at 168 h: ≥ 2000 mg/kg

## CCCN1CCCC(C(=O)NN=Cc2c(-c3ccccc3)nc3sc4c(n23)CCCC4)C1 (stereo not drawn) [Compound 12, 5,6,7,8-tetrahydro-2-phenyl-3-[N-propyl-3-piperidylcarbonylaminoiminomethyl]imidazo[2,1-b]benzothiazole hydrochloride]
[1]; Table 4
  Resistance with VCR, VJ-300 (resistance degree): 1.3
[2]
  Days of survival: 13.2 days
  Effect overcoming resistance (T/V %): 118%
  Rate of prolongation of life (T/C %): 128%
[3]
  LD50 at 168 h: 592 mg/kg

## CN1CCCC(C(=O)NN=Cc2c(-c3ccccc3)nc3sc4c(n23)CCCC4)C1 (stereo not drawn) [Compound 5, 5,6,7,8-tetrahydro-2-phenyl-3-(N-methyl-3-piperidylcarbonylaminoiminomethyl)imidazo[2,1-b]benzothiazole]
[1]; Table 3
  Resistance with VCR, VJ-300 (resistance degree): 1.2
[5]
  Days of survival: 14.38 days
  Effect overcoming resistance (T/V %): 130%
  Rate of prolongation of life (T/C %): 138%
[2]
  Days of survival: 14.0 days
  Effect overcoming resistance (T/V %): 125%
  Rate of prolongation of life (T/C %): 136%
[6]
  LD50 at 168 h: 604 mg/kg
